PubChem BioAssay (NCI)
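In this assay, cells in 96-well plates receive the compound at five concentrations for 48 hours. Endpoints are linearly interpolated between the surrounding concentrations. GI50 is the concentration that inhibits growth by half. Definition used: TGI = concentration required for complete inhibition of growth.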

Assays:
Test in all cases: DTP human tumour cell line panel, 48 h
OVCAR-5 ovarian = test system: OVCAR-5 ovarian
OVCAR-3 ovarian = test system: OVCAR-3 ovarian
MALME-3M melanoma = test system: MALME-3M melanoma
IGROV1 ovarian = test system: IGROV1 ovarian
786-0 renal = test system: 786-0 renal
A498 renal = test system: A498 renal
A549 NSCLC = test system: A549 NSCLC
MDA-MB-231 breast = test system: MDA-MB-231 breast
OVCAR-4 ovarian = test system: OVCAR-4 ovarian
T-47D breast = test system: T-47D breast
MDA-N = test system: MDA-N

## CCCCc1c2c(nc3c1CCc1cc4c(nc1-3)-c1nc3c(c(CCCC)c1CC4)CCC/C3=C\c1ccccc1)/C(=C/c1ccccc1)CCC2
OVCAR-5 ovarian
  TGI: > 100 µM
OVCAR-3 ovarian
  TGI: > 100 µM
MALME-3M melanoma
  TGI: > 100 µM
IGROV1 ovarian
  TGI: > 100 µM
786-0 renal
  TGI: > 100 µM
A498 renal
  TGI: > 100 µM
A549 NSCLC
  TGI: > 100 µM

## N#Cc1c(NC(=O)c2ccccc2)sc2c1CCC(=O)C2
MDA-MB-231 breast
  GI50: 1.99 µM
  TGI: 6.28 µM
OVCAR-5 ovarian
  GI50: 1.25 µM
  TGI: 4.77 µM
OVCAR-3 ovarian
  GI50: 1.04 µM
  TGI: 2.43 µM
MALME-3M melanoma
  GI50: 1.65 µM
  TGI: 3.92 µM
IGROV1 ovarian
  GI50: 1.59 µM
  TGI: 11 µM
A498 renal
  GI50: 8.83 µM
  TGI: 41.2 µM
OVCAR-4 ovarian
  GI50: 0.806 µM
  TGI: 2.49 µM
A549 NSCLC
  GI50: 6.7 µM
  TGI: > 100 µM

## Cc1cc2ccccc2n1CC(=O)NCC(C)C
T-47D breast
  TGI: > 100 µM
MDA-MB-231 breast
  TGI: > 100 µM
OVCAR-5 ovarian
  TGI: > 100 µM
OVCAR-3 ovarian
  TGI: > 100 µM
MDA-N
  TGI: > 100 µM
MALME-3M melanoma
  TGI: > 100 µM
IGROV1 ovarian
  TGI: > 100 µM
786-0 renal
  TGI: > 100 µM
OVCAR-4 ovarian
  TGI: > 100 µM
A549 NSCLC
  TGI: > 100 µM

## COc1cccc(NC(=O)CSc2nnc(-c3ccc(N=Cc4ccc(Cl)cc4)cc3)o2)c1
MALME-3M melanoma
  TGI: 39.3 µM
786-0 renal
  TGI: 57.5 µM
OVCAR-4 ovarian
  TGI: > 100 µM
A549 NSCLC
  TGI: 69.6 µM

## O=C(c1ccc2ccccc2c1)C1S(=O)(=O)OCCOS1(=O)=O
OVCAR-5 ovarian
  TGI: > 100 µM
OVCAR-3 ovarian
  TGI: > 100 µM
MDA-N
  TGI: > 100 µM
MALME-3M melanoma
  TGI: > 100 µM
786-0 renal
  TGI: > 100 µM
OVCAR-4 ovarian
  TGI: > 100 µM
A549 NSCLC
  TGI: > 100 µM

## OC(c1ccc(Cl)cc1)(c1ccc(Cl)cc1)C(O)(c1ccc(Cl)cc1)c1ccc(Cl)cc1
IGROV1 ovarian
  GI50: 1.97 µM
  TGI: > 100 µM

## Nc1nc(Cl)cc(N=Nc2ccccc2)n1
T-47D breast
  TGI: > 100 µM
MDA-MB-231 breast
  TGI: > 100 µM
OVCAR-5 ovarian
  TGI: > 100 µM
OVCAR-3 ovarian
  TGI: 30.3 µM
MALME-3M melanoma
  TGI: > 100 µM
IGROV1 ovarian
  TGI: 51.3 µM
786-0 renal
  TGI: > 100 µM
A498 renal
  TGI: > 100 µM
A549 NSCLC
  TGI: > 100 µM

## CC(=O)NC1C(CO)O[C@@H]2OC(C)(C)O[C@H]12 (stereo partly specified)
MDA-MB-231 breast
  TGI: > 100 µM
OVCAR-5 ovarian
  TGI: > 100 µM
OVCAR-3 ovarian
  TGI: > 100 µM
MDA-N
  TGI: > 100 µM
MALME-3M melanoma
  TGI: > 100 µM
IGROV1 ovarian
  TGI: > 100 µM
786-0 renal
  TGI: > 100 µM
A498 renal
  TGI: > 100 µM
OVCAR-4 ovarian
  TGI: > 100 µM
A549 NSCLC
  TGI: > 100 µM

## Cc1ccc(S(=O)(=O)n2cncc2CO)cc1
T-47D breast
  TGI: > 100 µM
MDA-MB-231 breast
  TGI: > 100 µM
OVCAR-5 ovarian
  TGI: > 100 µM
OVCAR-3 ovarian
  TGI: > 100 µM
MDA-N
  TGI: > 100 µM
MALME-3M melanoma
  TGI: > 100 µM
IGROV1 ovarian
  TGI: > 100 µM
786-0 renal
  TGI: > 100 µM
OVCAR-4 ovarian
  TGI: > 100 µM
A549 NSCLC
  TGI: > 100 µM

## c1ccc(CCN2CCCCCC2)nc1
T-47D breast
  TGI: > 100 µM
MDA-MB-231 breast
  TGI: > 100 µM
OVCAR-5 ovarian
  TGI: > 100 µM
OVCAR-3 ovarian
  TGI: > 100 µM
MALME-3M melanoma
  TGI: > 100 µM
IGROV1 ovarian
  TGI: > 100 µM
786-0 renal
  TGI: > 100 µM
A498 renal
  TGI: > 100 µM
OVCAR-4 ovarian
  TGI: > 100 µM
A549 NSCLC
  TGI: > 100 µM

## O=C(c1ccccc1)c1c(C(F)(F)F)n([O-])c2ccccc2[n+]1=O
T-47D breast
  TGI: 2.85 µM
OVCAR-3 ovarian
  TGI: 1.41 µM
IGROV1 ovarian
  TGI: 0.489 µM
786-0 renal
  TGI: > 100 µM
A498 renal
  TGI: 4.72 µM
OVCAR-4 ovarian
  TGI: 1.11 µM

## CC(C)(C)N=C1CC(C)(C)c2ccccc2C(=Nc2ccccc2)S1
OVCAR-5 ovarian
  TGI: > 100 µM
OVCAR-3 ovarian
  TGI: > 100 µM
MALME-3M melanoma
  TGI: 96.5 µM
IGROV1 ovarian
  TGI: > 100 µM
786-0 renal
  TGI: > 100 µM
A498 renal
  TGI: > 100 µM
A549 NSCLC
  TGI: > 100 µM

## COc1cc(C2C3=C(CCC3=O)Oc3cc4c(cc32)OCO4)cc(OC)c1OC (stereo unspecified)
OVCAR-5 ovarian
  TGI: > 100 µM
OVCAR-3 ovarian
  TGI: 0.381 µM
MALME-3M melanoma
  TGI: > 100 µM
IGROV1 ovarian
  TGI: > 100 µM
OVCAR-4 ovarian
  TGI: > 100 µM
A549 NSCLC
  TGI: > 100 µM

## CN1CCn2c(Br)ccc2C1=O
OVCAR-3 ovarian
  TGI: > 100 µM
MALME-3M melanoma
  TGI: > 100 µM
IGROV1 ovarian
  TGI: > 100 µM
786-0 renal
  TGI: > 100 µM
A498 renal
  TGI: > 100 µM
OVCAR-4 ovarian
  TGI: > 100 µM
A549 NSCLC
  TGI: > 100 µM

## Cc1c2c3cc(O)ccc3nc-2n(C)c2ccccc12
T-47D breast
  TGI: 17.1 µM
OVCAR-5 ovarian
  TGI: 8.85 µM
OVCAR-3 ovarian
  TGI: 6.07 µM
MDA-N
  TGI: 8.37 µM
MALME-3M melanoma
  TGI: 3.44 µM
IGROV1 ovarian
  TGI: 8.92 µM
786-0 renal
  TGI: 10.5 µM
A549 NSCLC
  TGI: 3.48 µM

## COc1ccc(/C=C2\Cc3ccccc3C2=O)cc1OC
OVCAR-5 ovarian
  TGI: > 100 µM
OVCAR-3 ovarian
  TGI: > 100 µM
MALME-3M melanoma
  TGI: > 100 µM
IGROV1 ovarian
  TGI: > 100 µM
786-0 renal
  TGI: > 100 µM
A498 renal
  TGI: > 100 µM
OVCAR-4 ovarian
  TGI: > 100 µM
A549 NSCLC
  TGI: > 100 µM

## COc1cc2cc(C(=O)N3CC(CCl)c4c3cc(N)c3ccccc43)[nH]c2cc1OCCN(C)C (stereo unspecified)
T-47D breast
  TGI: 0.0394 µM
MDA-MB-231 breast
  TGI: 0.0173 µM
OVCAR-5 ovarian
  TGI: 16.3 µM
OVCAR-3 ovarian
  TGI: 0.0209 µM
IGROV1 ovarian
  TGI: 0.00522 µM
A498 renal
  TGI: < 0.005 µM
A549 NSCLC
  TGI: 6 µM

## O=S1(=O)NNC(=NCc2ccc(Cl)cc2)c2ccccc21
OVCAR-5 ovarian
  TGI: > 100 µM
OVCAR-3 ovarian
  TGI: > 100 µM
MALME-3M melanoma
  TGI: > 100 µM
IGROV1 ovarian
  TGI: > 100 µM
786-0 renal
  TGI: > 100 µM
A498 renal
  TGI: > 100 µM
OVCAR-4 ovarian
  TGI: > 100 µM
A549 NSCLC
  TGI: > 100 µM

## CC[C@]12C=CCN3CCC4(c5cc(N=Nc6ccccc6)c(OC)cc5N(C)[C@H]4[C@@](O)(C(=O)OC)[C@@H]1OC(C)=O)[C@@H]32 (stereo partly specified)
MDA-MB-231 breast
  TGI: 31.6 µM
OVCAR-5 ovarian
  TGI: 41.1 µM
OVCAR-3 ovarian
  TGI: 28.1 µM
MDA-N
  TGI: 35.8 µM
MALME-3M melanoma
  TGI: 33.5 µM
IGROV1 ovarian
  TGI: 32.5 µM
786-0 renal
  TGI: 32.4 µM
A498 renal
  TGI: 32.2 µM
OVCAR-4 ovarian
  TGI: 38.8 µM
A549 NSCLC
  TGI: 40.9 µM

## CCN(CC)CCO/N=C1\CC[C@H]2[C@@H]3CC=C4C[C@@H](O)CC[C@]4(C)[C@H]3CC[C@]12C
MDA-MB-231 breast
  TGI: 41.2 µM
OVCAR-5 ovarian
  TGI: > 100 µM
OVCAR-3 ovarian
  TGI: 43.8 µM
MDA-N
  TGI: 58.1 µM
MALME-3M melanoma
  TGI: 29.7 µM
IGROV1 ovarian
  TGI: > 100 µM
786-0 renal
  TGI: 31.5 µM
A498 renal
  TGI: 35.9 µM
OVCAR-4 ovarian
  TGI: 71.1 µM
